Assays:
[1] = Inhibition of Dengue virus 2 NS5 polymerase-mediated RNA synthesis expressed in Escherichia coli Rosetta pLac1 cells assessed as [3H]GTP incorporation after 5 mins by scintillation counting; parameters: species or system dengue virus type 2
[2] = Inhibition of Bovine diarrhea virus NS5 polymerase-mediated RNA synthesis expressed in Escherichia coli Rosetta pLac1 cells assessed as [3H]GTP incorporation after 5 mins by scintillation counting; parameters: species or system Bovine viral diarrhea virus 1
[3] = Growth inhibition of human KB cells at 10 ug/ml; format: cell-based; settings: read-out: GI
[4] = system: KB; experiment: Cytotoxicity against human KB cells; format: cell-based

Row | Structure (SMILES) | IC50 ([1]; read-out: IC50) | IC50 [2] | IC50 [1] | inhibition at 10 ug/ml [3] | IC50 [4]
1 | O=C(O)CCC[C@@H](/C=C/c1ccccc1)c1c(O)cc2c(c1O)C(=O)C[C@H](c1ccccc1)O2 | 9 µM | > 50 µM | – | 11% | –
2 | O=C(O)CCC[C@H](/C=C/c1ccccc1)c1c(O)cc2c(c1O)C(=O)C[C@H](c1ccccc1)O2 | 15.3 µM | > 50 µM | – | 0% | –
3 | O=C(O)CCC/C=C/C(c1ccccc1)c1c(O)cc2c(c1O)C(=O)CC(c1ccccc1)O2 (racemic) | 72.5 µM | > 50 µM | – | 0% | –
4 | O=C(O)CCCC(/C=C/c1ccccc1)c1c(O)cc2c(c1O)C(=O)CC(c1ccccc1)O2 (racemic) | 14.8 µM | > 50 µM | – | 3.2% | –
5 | O=C(O)CCC[C@H](/C=C/c1ccccc1)c1c(O)cc2c(c1O)C(=O)C[C@@H](c1ccccc1)O2 [CHARTACEONE A3] | 27 µM | > 50 µM | – | 0% | –
6 | CC(=O)O[C@@]12CO[C@@H]1C[C@H](O)[C@@]1(C)C(=O)[C@H](O)C3=C(C)[C@@H](OC(=O)[C@H](O)[C@@H](NC(=O)OC(C)(C)C)c4ccccc4)C[C@@](O)([C@@H](OC(=O)c4ccccc4)[C@H]21)C3(C)C [DOCETAXEL] | – | – | – | – | 0.015 µM
7 | O=C1C[C@@H](c2ccccc2)Oc2cc(O)cc(O)c21 [PINOCEMBRIN] | – | – | Not Active | 0% | –

Continued by falling IC50 ([1]; read-out: IC50), values first:

Row | IC50 ([1]; read-out: IC50) | IC50 [2] | IC50 [1] | Structure (SMILES) | inhibition at 10 ug/ml [3] | IC50 [4]
8 | 7.4 µM | > 50 µM | – | O=C(O)CCC[C@@H](/C=C/c1ccccc1)c1c(O)cc2c(c1O)C(=O)C[C@@H](c1ccccc1)O2 [CHARTACEONE A4] | 6% | –
9 | 4.2 µM | > 50 µM | – | O=C(O)CCC/C=C/C(c1ccccc1)c1c(O)c2c(c(C(/C=C/CCCC(=O)O)c3ccccc3)c1O)OC(c1ccccc1)CC2=O (racemic) | 0% | –
10 | 2.9 µM | > 50 µM | – | O=C(O)CCC/C=C/C(c1ccccc1)c1c(O)c(C(/C=C/c2ccccc2)CCCC(=O)O)c(O)c2c1OC(c1ccccc1)CC2=O (racemic) | 0% | –
11 | 2.4 µM | > 50 µM | – | O=C(O)CCCC(/C=C/c1ccccc1)c1c(O)c2c(c(C(/C=C/c3ccccc3)CCCC(=O)O)c1O)OC(c1ccccc1)CC2=O (racemic) | 0% | –
12 | 1.8 µM | > 50 µM | – | O=C(O)CCC/C=C/C(c1ccccc1)c1c(O)c2c(c(C(/C=C/c3ccccc3)CCCC(=O)O)c1O)OC(c1ccccc1)CC2=O (racemic) | 0% | –
13 | 0.02 µM | < 1 µM | – | Nc1nc2c(ncn2[C@@H]2O[C@H](COP(=O)(O)OP(=O)(O)OP(=O)(O)O)C[C@H]2O)c(=O)[nH]1 | – | –

From ChEMBL document CHEMBL1938341, “Alkylated flavanones from the bark of Cryptocarya chartacea as dengue virus NS5 polymerase inhibitors” (J Nat Prod, 2011)
